Results: US20230085307A1, “PYRIDAZINONE COMPOUND AND HERBICIDE” (NISSAN CHEMICAL CORPORATION, priority 2019, published 2023)

Legend:
persian speedwell [1] = experiment: Test Example 4: herbicidal effect by soil treatment (Table 19, symbol R); format: in vivo, Persian speedwell (Veronica persica)
Summary of the method: (§1)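 In this soil treatment, the formulated compound reached the seeds only through the soil: seeds were buried about 1.5 cm deep in sterilized diluvial soil, then the diluted emulsion was sprayed over the surface. After three weeks at 25° C. to 30° C. in a greenhouse, effects were graded on criteria from an earlier test.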

chickweed [2] = experiment: Test Example 5: herbicidal effect by foliage application, plastic box (Table 20, symbol P); format: in vivo, common chickweed (Stellaria media); conditions: foliage application
Summary of the method: (§2)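 Plants were sown into sterilized diluvial soil under about 1.5 cm cover and kept in a greenhouse at 25° C. to 30° C. Fourteen days on, foliage received an even spray of the diluted emulsion. Herbicidal or crop effect was judged three weeks afterwards.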

blackgrass [3] = experiment: Test Example 4: herbicidal effect by soil treatment (Table 19, symbol J); format: in vivo, blackgrass (Alopecurus myosuroides)
Summary of the method: as §1

lambsquarters [4] = experiment: Test Example 5: herbicidal effect by foliage application, plastic box (Table 20, symbol O); format: in vivo, lambsquarters (Chenopodium album); conditions: foliage application
Summary of the method: as §2

southern crabgrass [5] = experiment: Test Example 4: herbicidal effect by soil treatment (Table 19, symbol F); format: in vivo, southern crabgrass (Digitaria ciliaris)
Summary of the method: as §1

blackgrass [6] = experiment: Test Example 5: herbicidal effect by foliage application, plastic box (Table 20, symbol J); format: in vivo, blackgrass (Alopecurus myosuroides); conditions: foliage application
Summary of the method: as §2

Italian ryegrass [7] = experiment: Test Example 4: herbicidal effect by soil treatment (Table 19, symbol K); format: in vivo, Italian ryegrass (Lolium multiflorum)
Summary of the method: as §1

rice flat sedge = experiment: Test Example 3: herbicidal effect by foliage application, Wagner pot (Table 18, symbol E); format: in vivo, rice flat sedge (Cyperus iria)
Summary of the method: (§3)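 Plants were sown in alluvial soil held under 0.1–0.5 cm standing water and grown 14 days in a greenhouse at 25–30 °C. An emulsifiable formulation, water-diluted to the set dose, was then sprayed onto the foliage, and effects were scored three weeks later using previously defined criteria.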

green foxtail [8] = experiment: Test Example 4: herbicidal effect by soil treatment (Table 19, symbol G); format: in vivo, green foxtail (Setaria viridis)
Summary of the method: as §1

persian speedwell [9] = experiment: Test Example 5: herbicidal effect by foliage application, plastic box (Table 20, symbol R); format: in vivo, Persian speedwell (Veronica persica); conditions: foliage application
Summary of the method: as §2

windgrass [10] = experiment: Test Example 5: herbicidal effect by foliage application, plastic box (Table 20, symbol L); format: in vivo, windgrass (Apera spica-venti); conditions: foliage application
Summary of the method: as §2

barnyard grass [11] = experiment: Test Example 3: herbicidal effect by foliage application, Wagner pot (Table 18, symbol H); format: in vivo, barnyard grass (Echinochloa crus-galli)
Summary of the method: as §3

southern crabgrass [12] = experiment: Test Example 5: herbicidal effect by foliage application, plastic box (Table 20, symbol F); format: in vivo, southern crabgrass (Digitaria ciliaris); conditions: foliage application
Summary of the method: as §2

wild oat [13] = experiment: Test Example 5: herbicidal effect by foliage application, plastic box (Table 20, symbol I); format: in vivo, wild oat (Avena fatua); conditions: foliage application
Summary of the method: as §2

barnyard grass [14] = experiment: Test Example 5: herbicidal effect by foliage application, plastic box (Table 20, symbol H); format: in vivo, barnyard grass (Echinochloa crus-galli); conditions: foliage application
Summary of the method: as §2

velvetleaf [15] = experiment: Test Example 4: herbicidal effect by soil treatment (Table 19, symbol M); format: in vivo, velvetleaf (Abutilon theophrasti)
Summary of the method: as §1

windgrass [16] = experiment: Test Example 4: herbicidal effect by soil treatment (Table 19, symbol L); format: in vivo, windgrass (Apera spica-venti)
Summary of the method: as §1

wild oat [17] = experiment: Test Example 4: herbicidal effect by soil treatment (Table 19, symbol I); format: in vivo, wild oat (Avena fatua)
Summary of the method: as §1

green foxtail [18] = experiment: Test Example 5: herbicidal effect by foliage application, plastic box (Table 20, symbol G); format: in vivo, green foxtail (Setaria viridis); conditions: foliage application
Summary of the method: as §2

Chinese sprangletop = experiment: Test Example 3: herbicidal effect by foliage application, Wagner pot (Table 18, symbol D); format: in vivo, chinese sprangletop (Leptochloa chinensis)
Summary of the method: as §3

Italian ryegrass [19] = experiment: Test Example 5: herbicidal effect by foliage application, plastic box (Table 20, symbol K); format: in vivo, Italian ryegrass (Lolium multiflorum); conditions: foliage application
Summary of the method: as §2

velvetleaf [20] = experiment: Test Example 5: herbicidal effect by foliage application, plastic box (Table 20, symbol M); format: in vivo, velvetleaf (Abutilon theophrasti); conditions: foliage application
Summary of the method: as §2

false cleavers = experiment: Test Example 5: herbicidal effect by foliage application, plastic box (Table 20, symbol Q); format: in vivo, false cleavers (Galium spurium); conditions: foliage application
Summary of the method: as §2

chickweed [21] = experiment: Test Example 4: herbicidal effect by soil treatment (Table 19, symbol P); format: in vivo, common chickweed (Stellaria media)
Summary of the method: as §1

barnyard grass [22] = experiment: Test Example 4: herbicidal effect by soil treatment (Table 19, symbol H); format: in vivo, barnyard grass (Echinochloa crus-galli)
Summary of the method: as §1

lambsquarters [23] = experiment: Test Example 4: herbicidal effect by soil treatment (Table 19, symbol O); format: in vivo, lambsquarters (Chenopodium album)
Summary of the method: as §1

redroot pigweed [24] = experiment: Test Example 4: herbicidal effect by soil treatment (Table 19, symbol N); format: in vivo, redroot pigweed (Amaranthus retroflexus)
Summary of the method: as §1

redroot pigweed [25] = experiment: Test Example 5: herbicidal effect by foliage application, plastic box (Table 20, symbol N); format: in vivo, redroot pigweed (Amaranthus retroflexus); conditions: foliage application
Summary of the method: as §2

[26] = AAH 80 g/ha, three weeks after application
[27] = 320 g/ha, evaluated three weeks after application

For `CCCC(=O)Oc1c(OC)nn(C)c(=O)c1-c1c(-c2ccc(OC)c(OC)c2)sc2ccccc12` [1-183], the “R: persian speedwell, herbicidal effect rating” value (persian speedwell [1]; AAH 80 g/ha) was 4 (Herbicidal rate of 70% or more and less than 90%), the “P: chickweed, herbicidal effect” value (chickweed [2]; [26]) was 4 (Herbicidal rate of 70% or more and less than 90%) and the “J: blackgrass, herbicidal effect rating” value (blackgrass [3]; AAH 80 g/ha) was 0 (Herbicidal rate of 5% or less (almost no effect)). The “O: lambsquarters, herbicidal effect” value (lambsquarters [4]; [26]) was 3 (Herbicidal rate of 40% or more and less than 70%), the “F: southern crabgrass, herbicidal effect rating” value (southern crabgrass [5]; AAH 80 g/ha) was 0 (Herbicidal rate of 5% or less (almost no effect)) and the “J: blackgrass, herbicidal effect” value (blackgrass [6]; [26]) was 0 (Herbicidal rate of 5% or less (almost no effect)). The “K: Italian ryegrass, herbicidal effect rating” value (Italian ryegrass [7]; AAH 80 g/ha) was 0 (Herbicidal rate of 5% or less (almost no effect)), the “herbicidal effect on E (rice flat sedge), rating 0-5” value (rice flat sedge; 80 g/ha) was 0 (Herbicidal rate of 5% or less (almost no effect)) and the “G: green foxtail, herbicidal effect rating” value (green foxtail [8]; AAH 80 g/ha) was 0 (Herbicidal rate of 5% or less (almost no effect)). The “R: persian speedwell, herbicidal effect” value (persian speedwell [9]; [26]) was 5 (Herbicidal rate of 90% or more (almost completely withered)), the “L: windgrass, herbicidal effect” value (windgrass [10]; [26]) was 0 (Herbicidal rate of 5% or less (almost no effect)) and the “herbicidal effect on H (barnyard grass), rating 0-5” value (barnyard grass [11]; 80 g/ha) was 3 (Herbicidal rate of 40% or more and less than 70%). The “F: southern crabgrass, herbicidal effect” value (southern crabgrass [12]; [26]) was 1 (Herbicidal rate of 5% or more and less than 20%), the “I: wild oat, herbicidal effect” value (wild oat [13]; [26]) was 0 (Herbicidal rate of 5% or less (almost no effect)) and the “H: barnyard grass, herbicidal effect” value (barnyard grass [14]; [26]) was 4 (Herbicidal rate of 70% or more and less than 90%). For the same compound, the “M: velvetleaf, herbicidal effect rating” value (velvetleaf [15]; AAH 80 g/ha) was 0 (Herbicidal rate of 5% or less (almost no effect)), the “L: windgrass, herbicidal effect rating” value (windgrass [16]; AAH 80 g/ha) was 0 (Herbicidal rate of 5% or less (almost no effect)) and the “I: wild oat, herbicidal effect rating” value (wild oat [17]; AAH 80 g/ha) was 0 (Herbicidal rate of 5% or less (almost no effect)). For the same compound, the “G: green foxtail, herbicidal effect” value (green foxtail [18]; [26]) was 4 (Herbicidal rate of 70% or more and less than 90%), the “herbicidal effect on D (Chinese sprangletop), rating 0-5” value (Chinese sprangletop; 80 g/ha) was 2 (Herbicidal rate of 20% or more and less than 40%) and the “K: Italian ryegrass, herbicidal effect” value (Italian ryegrass [19]; [26]) was 1 (Herbicidal rate of 5% or more and less than 20%). For the same compound, the “M: velvetleaf, herbicidal effect” value (velvetleaf [20]; [26]) was 1 (Herbicidal rate of 5% or more and less than 20%), the “Q: false cleavers, herbicidal effect” value (false cleavers; [26]) was 2 (Herbicidal rate of 20% or more and less than 40%) and the “P: chickweed, herbicidal effect rating” value (chickweed [21]; AAH 80 g/ha) was 3 (Herbicidal rate of 40% or more and less than 70%). The “H: barnyard grass, herbicidal effect rating” value (barnyard grass [22]; AAH 80 g/ha) was 0 (Herbicidal rate of 5% or less (almost no effect)), the “O: lambsquarters, herbicidal effect rating” value (lambsquarters [23]; AAH 80 g/ha) was 0 (Herbicidal rate of 5% or less (almost no effect)) and the “N: redroot pigweed, herbicidal effect rating” value (redroot pigweed [24]; AAH 80 g/ha) was 0 (Herbicidal rate of 5% or less (almost no effect)). For the same compound, the “N: redroot pigweed, herbicidal effect” value (redroot pigweed [25]; [26]) was 3 (Herbicidal rate of 40% or more and less than 70%).

For `Cc1nn(C)c(=O)c(-c2c(-c3ccc4c(c3)OCO4)sc3ccc(F)cc23)c1O` [2-090], the “herbicidal effect rating, R: persian speedwell” value (persian speedwell [1]; 320 g/ha) was 5 (Herbicidal rate of 90% or more (almost completely withered)), the “herbicidal effect on P: chickweed” value (chickweed [2]; [27]) was 5 (Herbicidal rate of 90% or more (almost completely withered)) and the “herbicidal effect rating, J: blackgrass” value (blackgrass [3]; 320 g/ha) was 2 (Herbicidal rate of 20% or more and less than 40%). The “herbicidal effect on O: lambsquarters” value (lambsquarters [4]; [27]) was 5 (Herbicidal rate of 90% or more (almost completely withered)), the “herbicidal effect rating, F: southern crabgrass” value (southern crabgrass [5]; 320 g/ha) was 2 (Herbicidal rate of 20% or more and less than 40%) and the “herbicidal effect on J: blackgrass” value (blackgrass [6]; [27]) was 4 (Herbicidal rate of 70% or more and less than 90%). For the same compound, the “herbicidal effect rating, K: Italian ryegrass” value (Italian ryegrass [7]; 320 g/ha) was 4 (Herbicidal rate of 70% or more and less than 90%), the “herbicidal effect on E (rice flat sedge), rating 0-5” value (rice flat sedge; 320 g/ha) was 5 (Herbicidal rate of 90% or more (almost completely withered)) and the “herbicidal effect rating, G: green foxtail” value (green foxtail [8]; 320 g/ha) was 3 (Herbicidal rate of 40% or more and less than 70%). The “herbicidal effect on R: persian speedwell” value (persian speedwell [9]; [27]) was 5 (Herbicidal rate of 90% or more (almost completely withered)), the “herbicidal effect on L: windgrass” value (windgrass [10]; [27]) was 5 (Herbicidal rate of 90% or more (almost completely withered)) and the “herbicidal effect on H (barnyard grass), rating 0-5” value (barnyard grass [11]; 320 g/ha) was 5 (Herbicidal rate of 90% or more (almost completely withered)). For the same compound, the “herbicidal effect on F: southern crabgrass” value (southern crabgrass [12]; [27]) was 4 (Herbicidal rate of 70% or more and less than 90%), the “herbicidal effect on I: wild oat” value (wild oat [13]; [27]) was 3 (Herbicidal rate of 40% or more and less than 70%) and the “herbicidal effect on H: barnyard grass” value (barnyard grass [14]; [27]) was 5 (Herbicidal rate of 90% or more (almost completely withered)). For the same compound, the “herbicidal effect rating, M: velvetleaf” value (velvetleaf [15]; 320 g/ha) was 5 (Herbicidal rate of 90% or more (almost completely withered)), the “herbicidal effect rating, L: windgrass” value (windgrass [16]; 320 g/ha) was 0 (Herbicidal rate of 5% or less (almost no effect)) and the “herbicidal effect rating, I: wild oat” value (wild oat [17]; 320 g/ha) was 0 (Herbicidal rate of 5% or less (almost no effect)). For the same compound, the “herbicidal effect on G: green foxtail” value (green foxtail [18]; [27]) was 5 (Herbicidal rate of 90% or more (almost completely withered)), the “herbicidal effect on D (Chinese sprangletop), rating 0-5” value (Chinese sprangletop; 320 g/ha) was 2 (Herbicidal rate of 20% or more and less than 40%) and the “herbicidal effect on K: Italian ryegrass” value (Italian ryegrass [19]; [27]) was 5 (Herbicidal rate of 90% or more (almost completely withered)). For the same compound, the “herbicidal effect on M: velvetleaf” value (velvetleaf [20]; [27]) was 5 (Herbicidal rate of 90% or more (almost completely withered)), the “herbicidal effect on Q: false cleavers” value (false cleavers; [27]) was 4 (Herbicidal rate of 70% or more and less than 90%) and the “herbicidal effect rating, P: chickweed” value (chickweed [21]; 320 g/ha) was 4 (Herbicidal rate of 70% or more and less than 90%). For the same compound, the “herbicidal effect rating, H: barnyard grass” value (barnyard grass [22]; 320 g/ha) was 2 (Herbicidal rate of 20% or more and less than 40%), the “herbicidal effect rating, O: lambsquarters” value (lambsquarters [23]; 320 g/ha) was 5 (Herbicidal rate of 90% or more (almost completely withered)) and the “herbicidal effect rating, N: redroot pigweed” value (redroot pigweed [24]; 320 g/ha) was 5 (Herbicidal rate of 90% or more (almost completely withered)). The “herbicidal effect on N: redroot pigweed” value (redroot pigweed [25]; [27]) was 5 (Herbicidal rate of 90% or more (almost completely withered)).
